Patent publication EP4389751A1, “HETEROCYCLIC COMPOUNDS AND USES THEREOF” (Kumquat Biosciences Inc., priority 2021, dated 2024)
Where two headings read alike, the source gives them in different places.

Tests used:
[1] = molecular target: T1, KRAS protein (His-tagged GDP-loaded G12S 1-169) (Homo sapiens, UniProt P01116, G12S); assay: Covalent modification of KRAS protein, intact-protein LC-MS; assay type: binding; conditions: 24hrs at room temperature, KRAS protein ~2 µM
T1 construct: His-tagged GDP-loaded G12S 1-169
Outline: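 His-tagged GDP-loaded KRAS 1-169 (~2 µM) incubated with compound 24 h at room temperature, then quenched with formic acid. Intact-protein LC-ESI-MS on C4 column; deconvoluted peak intensities of unmodified and adducted protein give percent covalent modification.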

A549 cells = assay: Cell proliferation assay (CellTiter-Glo), K-Ras G12S cells; assay type: cell-based; conditions: for IC50: Homo sapiens, A549, A549 cells (K-Ras G12S), read-out: Inhibition of A549 Cells (IC50); for ratio of IC50 against a G12D cell line to IC50 against a G12S cell line: K-Ras G12D cell line such as GP2D relative to K-Ras G12S cell line such as A549, greater than 1, 2, 3, 4, 5, 10, 15 or even greater, 8640 min
Description: A549 (ATCC CRL-185) and LS123 (ATCC CRL-255) cell lines comprise a G12S mutation and can be used to assess Ras cellular signaling in vitro, e.g., in response to the compounds herein. A549 culture medium is prepared with RPMI-1640 and 10% heat-inactivated FBS. LS123 culture medium is prepared with RPMI-1640 and 10% heat-inactivated FBS. A CellTiter-Glo (CTG) luminescent based assay (Promega) is used to assess growth of the cells, as a measurement of the ability of the compounds herein to inhibit Ras signaling in the cells. The cells (e.g., 800 per well) are seeded in their respective culture medium in standard tissue culture-treated 384-well format plates (Falcon #08-772-116) or ultra-low attachment surface 384-well format plates (S-Bio # MS-9384WZ). The day after plating, cells are treated with a dilution series (e.g., a 10 point 3-fold dilution series) of the compounds herein (e.g., approximately 40 µl final volume per well). Cell viability can be monitored (e.g., approximately 6 days later) according to the manufacturer's recommended instructions, where the CellTiter-Glo reagent is added (e.g., approximately 10 µl), vigorously mixed, covered, and placed on a plate shaker (e.g., approximately for 20 min) to ensure sufficient cell lysis prior to assessment of luminescent signal. The IC50 values are determined using the four parameter fit. The resulting IC50 value is a measurement of the ability of the compounds herein to reduce cell growth of Ras-driven cells (e.g., tumor cell lines) in vitro and/or in vivo.

K-Ras G12S = molecular target: T2, K-Ras G12S (Homo sapiens, UniProt P01116, G12S); assay: HTRF assay of the K-Ras / SOS1 interaction; assay type: biochemical; conditions: IC50 (against K-Ras G12D) to IC50 (against K-Ras G12S)
T2 construct: made in house; host or cells: E. coli (e.g., BL21 (DE3))
Outline: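 GST-K-Ras G12S with anti-GST-Eu donor and His-hSOS1 with anti-6His-XL665 acceptor in ~5 mM HEPES pH 7.4, ~150 mM NaCl, 1 mM DTT, 0.05% BSA, 0.0025% Igepal. Read after ~10 min or longer; IC50 from 665/620 nm ratio, duplicates at 10 µM down to 0.01 µM.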

GP2D cells = assay: Cell proliferation assay (CellTiter-Glo), K-Ras G12D cells; assay type: cell-based; conditions: GP2D cells (K-Ras G12D); read-out: Inhibition of GP2D Cells (IC50)
Outline: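 GP2D (K-Ras G12D) cells seeded in DMEM with 2 mM glutamine and 10% FBS, then dosed next day with a dilution series (e.g., 9-point 3-fold). Viability read by CellTiter-Glo luminescence after about 5 days. IC50 from four-parameter fit.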

IC50 (A549 cells; bin ≤ 500 nM) [µM]	ratio of IC50 against a G12D cell line to IC50 against a G12S cell line (A549 cells)	IC50 (A549 cells; bin 500 nM to 5 µM) [µM]	SMILES	% G12S Modification at 24 hr. [1]	Ratio of IC50 KRAS G12D vs. IC50 KRAS G12S (K-Ras G12S)	IC50 (GP2D cells) [µM]
≤ 0.5			N#Cc1c(N)sc2c(F)ccc(-c3c(Cl)cc4c(N5CCOC6(CN(C(=O)n7cncn7)C6)C5)nc(OC[C@@]56CCCN5C[C@H](F)C6)nc4c3F)c12 [Compound A162, 4-(4-(2-(1H-1,2,4-triazole-1-carbonyl)-5-oxa-2,8-diazaspiro[3.5]nonan-8-yl)-6-chloro-8-fluoro-2-(((2R,7aS)-2-fluorotetrahydro-1H-pyrrolizin-7a(5H)-yl)methoxy)quinazolin-7-yl)-2-amino-7-fluorobenzo[b]thiophene-3-carbonitrile]	+++ (+++ indicates greater than 20% labelling)	A (A: indicates that the ratio of IC50 against KrasG12D vs. IC50 against KrasG12S is 1-fold or greater)	
≤ 0.5	greater than 1		C#Cc1c(F)ccc2cc(O)cc(-c3ccc4c(N5CCCC6(CN(C(=O)n7cncn7)C6)C5)nc(OC[C@@]56CCCN5C[C@H](F)C6)nc4c3F)c12 [Compound A210, (6-(7-(8-ethynyl-7-fluoro-3-hydroxynaphthalen-1-yl)-8-fluoro-2-(((2R,7aS)-2-fluorotetrahydro-1H-pyrrolizin-7a(5H)-yl)methoxy)quinazolin-4-yl)-2,6-diazaspiro[3.5]nonan-2-yl)(1H-1,2,4-triazol-1-yl)methanone]	+++ (+++ indicates greater than 20% labelling)		1 to 10
≤ 0.5			C#Cc1c(F)ccc2cc(O)cc(-c3ncc4c(N5CCCC6(CN(C(=O)n7cncn7)C6)C5)nc(OC[C@@]56CCCN5C[C@H](F)C6)nc4c3F)c12 [Compound A133, (6-(7-(8-ethynyl-7-fluoro-3-hydroxynaphthalen-1-yl)-8-fluoro-2-(((2R,7aS)-2-fluorotetrahydro-1H-pyrrolizin-7a(5H)-yl)methoxy)pyrido[4,3-d]pyrimidin-4-yl)-2,6-diazaspiro[3.5]nonan-2-yl)(1H-1,2,4-triazol-1-yl)methanone]	+++ (+++ indicates greater than 20% labelling)		1 to 10
≤ 0.5			C#Cc1c(F)ccc2cc(O)cc(-c3ncc4c(N5CCOC6(CN(C(=O)n7cncn7)C6)C5)nc(OC[C@@]56CCCN5C[C@H](F)C6)nc4c3F)c12 [Compound A106, (8-(7-(8-ethynyl-7-fluoro-3-hydroxynaphthalen-1-yl)-8-fluoro-2-(((2R,7aS)-2-fluorotetrahydro-1H-pyrrolizin-7a(5H)-yl)methoxy)pyrido[4,3-d]pyrimidin-4-yl)-5-oxa-2,8-diazaspiro[3.5]nonan-2-yl)(1H-1,2,4-triazol-1-yl)methanone]	+++ (+++ indicates greater than 20% labelling)		1 to 10
≤ 0.5	greater than 1		C[C@H](Oc1nc(N2CCCCC3(CN(C(=O)n4cncn4)C3)C2)c2cc(Cl)c(-c3ccc(F)c4sc(N)c(C#N)c34)c(F)c2n1)[C@@H]1CCCN1C [Compound A219, 4-(4-(2-(1H-1,2,4-triazole-1-carbonyl)-2,6-diazaspiro[3.6]decan-6-yl)-6-chloro-8-fluoro-2-((S)-1-((S)-1-methylpyrrolidin-2-yl)ethoxy)quinazolin-7-yl)-2-amino-7-fluorobenzo[b]thiophene-3-carbonitrile]	+++ (+++ indicates greater than 20% labelling)		≤ 1
≤ 0.5			N#Cc1c(N)sc2c(F)ccc(-c3c(Cl)cc4c(N5CCCCC6(CN(C(=O)n7cncn7)C6)C5)nc(OC[C@@]56CCCN5C[C@H](F)C6)nc4c3F)c12 [Compound A295, 4-(4-(2-(1H-1,2,4-triazole-1-carbonyl)-2,6-diazaspiro[3.6]decan-6-yl)-6-chloro-8-fluoro-2-(((2R,7aS)-2-fluorotetrahydro-1H-pyrrolizin-7a(5H)-yl)methoxy)quinazolin-7-yl)-2-amino-7-fluorobenzo[b]thiophene-3-carbonitrile]	+++ (+++ indicates greater than 20% labelling)		≤ 1
	greater than 1		N#Cc1c(N)sc2c(F)ccc(-c3c(Cl)cc4c(N5CC(F)(F)C6(CN(C(=O)n7cncn7)C6)C5)nc(OC[C@@]56CCCN5C[C@H](F)C6)nc4c3F)c12 [Compound A199, 2-amino-4-(6-chloro-4-(8,8-difluoro-2-(1H-1,2,4-triazole-1-carbonyl)-2,6-diazaspiro[3.4]octan-6-yl)-8-fluoro-2-(((2R,7aS)-2-fluorotetrahydro-1H-pyrrolizin-7a(5H)-yl)methoxy)quinazolm-7-yl)-7-fluorobenzo[b]thiophene-3-carbonitrile]	+++ (+++ indicates greater than 20% labelling)	A (A: indicates that the ratio of IC50 against KrasG12D vs. IC50 against KrasG12S is 1-fold or greater)	
≤ 0.5			N#Cc1c(N)sc2c(F)ccc(-c3c(Cl)cc4c(N5CC6CCN(C(=O)n7cncn7)C6C5)nc(OC[C@@]56CCCN5C[C@H](F)C6)nc4c3F)c12 (stereo partly drawn) [Compound A180, 4-(4-(1-(1H-1,2,4-triazole-1-carbonyl)hexahydropyrrolo[3,4-b]pyrrol-5(1H)-yl)-6-chloro-8-fluoro-2-(((2R,7aS)-2-fluorotetrahydro-1H-pyrrolizin-7a(5H)-yl)methoxy)quinazolm-7-yl)-2-amino-7-fluorobenzo[b]thiophene-3-carbonitrile]		A (A: indicates that the ratio of IC50 against KrasG12D vs. IC50 against KrasG12S is 1-fold or greater)	1 to 10
		0.5 to 5	Cc1ncn(C(=O)N2CCCC(Oc3nc(OC[C@@]45CCCN4C[C@H](F)C5)nc4c(F)c(-c5ccc(F)c6sc(N)c(C#N)c56)c(Cl)cc34)CC2)n1 (stereo partly drawn) [Compound A174, 2-amino-4-(6-chloro-8-fluoro-2-(((2R,7aS)-2-fluorotetrahydro-1H-pyrrolizin-7 a(5H)-yl)methoxy)-4-((1-(3-methyl-1H-1 ,2,4-triazole-1-carbonyl)azepan-4-yl)oxy)quinazolin-7-yl)-7-fluorobenzo[b]thiophene-3-carbonitrile]		A (A: indicates that the ratio of IC50 against KrasG12D vs. IC50 against KrasG12S is 1-fold or greater)	1 to 10
		0.5 to 5	Nc1nc2c(-c3c(Cl)cc4c(N5CCC6(CC5)CN(C(=O)n5cncn5)C6)nc(OC[C@@]56CCCN5C[C@H](F)C6)nc4c3F)ccc(F)c2s1 [Compound A233, (7-(7-(2-amino-7-fluorobenzo[d]thiazol-4-yl)-6-chloro-8-fluoro-2-(((2R,7aS)-2-fluorotetrahydro-1H-pyrrolizin-7a(5H)-yl)methoxy)quinazolin-4-yl)-2,7-diazaspiro[3.5]nonan-2-yl)(1H-1,2,4-triazol-1-yl)methanone]		A (A: indicates that the ratio of IC50 against KrasG12D vs. IC50 against KrasG12S is 1-fold or greater)	1 to 10

SMILES	IC50 (A549 cells; bin ≤ 500 nM) [µM]	ratio of IC50 against a G12D cell line to IC50 against a G12S cell line (A549 cells)	IC50 (A549 cells; bin 500 nM to 5 µM) [µM]	% G12S Modification at 24 hr. [1]	Ratio of IC50 KRAS G12D vs. IC50 KRAS G12S (K-Ras G12S)	IC50 (GP2D cells) [µM]
C#Cc1c(F)ccc2cc(O)cc(-c3ncc4c(N5CC6CCC(C5)N6C(=O)n5cnc(C#N)c5)nc(OC[C@@]56CCCN5C[C@H](F)C6)nc4c3F)c12 [Compound A255, 1-(3-(7-(8-ethynyl-7-fluoro-3-hydroxynaphthalen-1-yl)-8-fluoro-2-(((2R,7aS)-2-fluorotetrahydro-1H-pyrrolizin-7a(5H)-yl)methoxy)pyrido[4,3-d]pyrimidin-4-yl)-3,8-diazabicyclo[3.2.1]octane-8-carbonyl)-1H-imidazole-4-carbonitrile]			0.5 to 5	++ (++ indicates between about 1%- 20% labelling)		≤ 1
